The source made the active and inactive calls.
Key:
BT-549 [1] = assay: Inhibition of colony formation in human BT-549 cells assessed as reduction in colony number incubated for 14 days by crystal violet staining based analysis; type: functional, cell-based; conditions: time 14.0 day
[2] = molecular target: T1, Poly [ADP-ribose] polymerase 1 (Homo sapiens, UniProt P09874); assay: Inhibition of PARP-1 in human BT-549 cells assessed as downregulation of RAD51 expression at 0.5 uM incubated for 48 hrs by immunoblotting analysis; type: cell-based
T1 sequence (P09874 whole entry): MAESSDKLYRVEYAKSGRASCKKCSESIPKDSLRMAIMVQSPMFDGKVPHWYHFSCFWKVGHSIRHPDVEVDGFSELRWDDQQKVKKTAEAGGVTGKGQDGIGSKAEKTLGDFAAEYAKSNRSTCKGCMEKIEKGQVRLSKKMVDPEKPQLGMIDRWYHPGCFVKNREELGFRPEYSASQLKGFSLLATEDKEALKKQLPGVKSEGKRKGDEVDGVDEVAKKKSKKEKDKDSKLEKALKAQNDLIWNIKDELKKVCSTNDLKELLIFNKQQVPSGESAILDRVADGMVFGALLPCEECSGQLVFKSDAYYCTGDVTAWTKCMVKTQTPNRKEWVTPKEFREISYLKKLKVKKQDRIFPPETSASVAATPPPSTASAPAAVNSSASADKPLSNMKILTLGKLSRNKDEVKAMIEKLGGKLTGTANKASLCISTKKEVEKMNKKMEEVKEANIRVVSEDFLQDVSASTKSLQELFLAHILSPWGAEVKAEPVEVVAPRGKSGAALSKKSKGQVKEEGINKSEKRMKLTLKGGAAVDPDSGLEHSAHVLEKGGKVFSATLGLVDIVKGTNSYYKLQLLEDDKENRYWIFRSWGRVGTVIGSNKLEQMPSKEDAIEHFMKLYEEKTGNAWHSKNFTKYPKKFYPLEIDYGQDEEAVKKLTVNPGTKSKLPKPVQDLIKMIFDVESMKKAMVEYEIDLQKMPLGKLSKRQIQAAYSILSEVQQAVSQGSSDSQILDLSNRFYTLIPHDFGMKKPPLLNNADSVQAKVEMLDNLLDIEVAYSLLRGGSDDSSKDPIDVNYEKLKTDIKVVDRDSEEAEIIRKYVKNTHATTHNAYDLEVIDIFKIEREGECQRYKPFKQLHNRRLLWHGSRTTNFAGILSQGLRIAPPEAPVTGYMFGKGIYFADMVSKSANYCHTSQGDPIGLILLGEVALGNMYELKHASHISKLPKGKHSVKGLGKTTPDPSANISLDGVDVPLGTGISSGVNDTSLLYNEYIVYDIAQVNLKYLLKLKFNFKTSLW

[3] = molecular target: T1, Poly [ADP-ribose] polymerase 1; assay: Inhibition of PARP-1 in human BT-549 cells assessed as downregulation of P-ATM expression at 0.5 uM incubated for 48 hrs by immunoblotting analysis; type: cell-based
BT-549 [4] = assay: Induction in cell cycle arrest in human BT-549 cells assessed as downregulation of Cyclin A2 expression at 0.05 uM incubated for 48 hrs by Western blotting analysis; type: functional, cell-based
[5] = molecular target: T1, Poly [ADP-ribose] polymerase 1; assay: Inhibition of PARP-1 in human BT-549 cells assessed as downregulation of FANCD2 mRNA expression incubated for 48 hrs by RT-qPCR analysis; type: cell-based
[6] = molecular target: T1, Poly [ADP-ribose] polymerase 1; assay: Inhibition of PARP-1 in human BT-549 cells assessed as downregulation of RAD51 mRNA expression incubated for 48 hrs by RT-qPCR analysis; type: cell-based
[7] = molecular target: T1, Poly [ADP-ribose] polymerase 1; assay: Inhibition of PARP-1 in human BT-549 cells assessed as downregulation of BRCA1 mRNA expression incubated for 48 hrs by RT-qPCR analysis; type: cell-based
BT-549 [8] = assay: Induction in cell cycle arrest in human BT-549 cells assessed as downregulation of Cyclin A2 expression at 0.5 uM incubated for 48 hrs by Western blotting analysis; type: functional, cell-based
BT-549 [9] = assay: Induction of apoptosis in human BT-549 cells assessed as upregulation of cleaved PARP expression incubated for 48 hrs by Western blotting analysis; type: functional, cell-based
[10] = molecular target: T1, Poly [ADP-ribose] polymerase 1; assay: Inhibition of PARP-1 in human BT-549 cells assessed as downregulation of RAD51 expression at 0.05 uM incubated for 48 hrs by immunoblotting analysis; type: cell-based
BT-549 [11] = assay: Induction of DNA damage in human BT-549 cells assessed as decrease in BRCA1 localization in nucleus at 0.125 uM incubated for 48 hrs by fluorescence confocal microscopic analysis; type: functional, cell-based
BT-549 [12] = assay: Induction of DNA damage in human BT-549 cells assessed as increase in polyubiquitination at 0.125 uM incubated for 48 hrs by fluorescence confocal microscopic analysis; type: functional, cell-based
BT-549 [13] = assay: Induction of DNA damage in human BT-549 cells assessed as upregulation of gamma-H2AX level at 0.05 uM incubated for 48 hrs by immunoblotting analysis; type: functional, cell-based
[14] = molecular target: T1, Poly [ADP-ribose] polymerase 1; assay: Inhibition of PARP-1 (unknown origin) using Femto-ECL as substrate preincubated for 2.7 hrs followed by substrate addition by chemiluminescence assay
BT-549 [15] = assay: Induction in cell cycle arrest in human BT-549 cells assessed as upregulation of p21 expression at 0.5 uM incubated for 48 hrs by Western blotting analysis; type: functional, cell-based
BT-549 [16] = assay: Induction of DNA damage in human BT-549 cells assessed as decrease in ubiquitin localization in nucleus at 0.125 uM incubated for 48 hrs by fluorescence confocal microscopic analysis; type: functional, cell-based
BT-549 [17] = assay: Induction in cell cycle arrest in human BT-549 cells assessed as downregulation of CDK1 expression at 0.05 uM incubated for 48 hrs by Western blotting analysis; type: functional, cell-based
BT-549 [18] = assay: Induction of DNA damage in human BT-549 cells assessed as upregulation of gamma-H2AX level at 0.5 uM incubated for 48 hrs by immunoblotting analysis; type: functional, cell-based
BT-549 [19] = assay: Inhibition of colony formation in human BT-549 cells assessed as reduction in colony size incubated for 14 days by crystal violet staining based analysis; type: functional, cell-based; conditions: time 14.0 day
BT-549 [20] = assay: Induction in cell cycle arrest in human BT-549 cells assessed as downregulation of CDK1 expression at 0.5 uM incubated for 48 hrs by Western blotting analysis; type: functional, cell-based
[21] = molecular target: T1, Poly [ADP-ribose] polymerase 1; assay: Inhibition of PARP-1 in human BT-549 cells assessed as downregulation of P-ATM expression at 0.05 uM incubated for 48 hrs by immunoblotting analysis; type: cell-based
20S proteasome = assay: Inhibition of 20S proteasome (unknown origin) using […] as substrate; type: protein-complex assay, Homo sapiens
MDA-MB-231 [22] = assay: Cytotoxicity against human MDA-MB-231 cells assessed as inhibition of cell growth incubated for 72 hrs by MTT assay; type: functional, cell-based; conditions: MDA-MB-231, 72 h
BT-549 [23] = assay: Induction of apoptosis in human BT-549 cells assessed as upregulation of cleaved caspase-3 expression incubated for 48 hrs by Western blotting analysis; type: functional, cell-based
[24] = molecular target: T1, Poly [ADP-ribose] polymerase 1; assay: Inhibition of PARP-1 in human BT-549 cells assessed as downregulation of BRCA2 mRNA expression incubated for 48 hrs by RT-qPCR analysis; type: cell-based
BT-549 [25] = assay: Induction of DNA damage in human BT-549 cells assessed as increase in gamma-H2AX localization in nucleus at 0.125 uM incubated for 48 hrs by fluorescence confocal microscopic analysis; type: functional, cell-based
MCF7 [26] = assay: Cytotoxicity against human MCF7 cells assessed as inhibition of cell growth incubated for 72 hrs by MTT assay; type: functional, cell-based; conditions: MCF7, 72 h
[27] = molecular target: T1, Poly [ADP-ribose] polymerase 1; assay: Inhibition of PARP-1 in human BT-549 cells assessed as downregulation of BRCA1 expression at 0.5 uM incubated for 48 hrs by immunoblotting analysis; type: cell-based
BT-549 [28] = assay: Cytotoxicity against human BT-549 cells assessed as inhibition of cell growth incubated for 72 hrs by MTT assay; type: functional, cell-based; conditions: BT-549, 72 h
BT-549 [29] = assay: Induction of DNA damage in human BT-549 cells assessed as decrease in polyubiquitination in nucleus at 0.125 uM incubated for 48 hrs by fluorescence confocal microscopic analysis; type: functional, cell-based
[30] = molecular target: T1, Poly [ADP-ribose] polymerase 1; assay: Inhibition of PARP-1 in human BT-549 cells assessed as downregulation of BRCA1 expression at 0.05 uM incubated for 48 hrs by immunoblotting analysis; type: cell-based
BT-549 [31] = assay: Induction in cell cycle arrest in human BT-549 cells assessed as upregulation of p21 expression at 0.05 uM incubated for 48 hrs by Western blotting analysis; type: functional, cell-based
BT-549 [32] = assay: Induction of apoptosis in human BT-549 cells assessed as increase in early apoptotic cells incubated for 48 hrs by Annexin V-FITC/PI staining based flow cytometric analysis; type: functional, cell-based
BT-549 [33] = assay: Induction of apoptosis in human BT-549 cells assessed as increase in late apoptotic cells incubated for 48 hrs by Annexin V-FITC/PI staining based flow cytometric analysis; type: functional, cell-based
BT-549 [34] = assay: Induction of DNA damage in human BT-549 cells assessed as upregulation of gamma-H2AX level at 1 uM incubated for 48 hrs by immunoblotting analysis; type: functional, cell-based
BT-549 [35] = assay: Synergistic antiproliferative activity against human BT-549 cells assessed as synergistic score in presence of Ixazomib; type: functional
MCF7 [36] = assay: Antiproliferative activity against human MCF7 cells assessed as fold change in inhibition of cell growth at 0.3 to 1.2 uM incubated for 72 hrs by MTT assay; type: functional; conditions: dose 0.3-1.2 µM
ES-2 = assay: Antiproliferative activity against human ES2 cells assessed as fold change in inhibition of cell growth at 0.3 to 1.2 uM incubated for 72 hrs by MTT assay; type: functional; conditions: dose 0.3-1.2 µM
MDA-MB-231 [37] = assay: Antiproliferative activity against human MDA-MB-231 cells assessed as fold change in inhibition of cell growth at 0.3 to 1.2 uM incubated for 72 hrs by MTT assay; type: functional; conditions: dose 0.3-1.2 µM
PC-3 = assay: Antiproliferative activity against human PC-3 cells assessed as fold change in inhibition of cell growth at 0.3 to 1.2 uM incubated for 72 hrs by MTT assay; type: functional; conditions: dose 0.3-1.2 µM
HEY = assay: Antiproliferative activity against human HEY cells assessed as fold change in inhibition of cell growth at 0.3 to 1.2 uM incubated for 72 hrs by MTT assay; type: functional; conditions: dose 0.3-1.2 µM
SK-OV-3 = assay: Antiproliferative activity against human SK-OV-3 cells assessed as fold change in inhibition of cell growth at 0.3 to 1.2 uM incubated for 72 hrs by MTT assay; type: functional; conditions: dose 0.3-1.2 µM
BT-549 [38] = assay: Antiproliferative activity against human BT-549 cells assessed as fold change in inhibition of cell growth at 0.3 to 1.2 uM incubated for 72 hrs by MTT assay; type: functional; conditions: dose 0.3-1.2 µM
A549 = assay: Antiproliferative activity against human A549 cells assessed as fold change in inhibition of cell growth at 0.3 to 1.2 uM incubated for 72 hrs by MTT assay; type: functional; conditions: dose 0.3-1.2 µM
NCI-H1299 = assay: Antiproliferative activity against human NCI-H1299 cells assessed as fold change in inhibition of cell growth at 0.3 to 1.2 uM incubated for 72 hrs by MTT assay; type: functional; conditions: dose 0.3-1.2 µM
[39] = Antiproliferative activity against human COV362 cells assessed as fold change in inhibition of cell growth at 0.3 to 1.2 uM incubated for 72 hrs by MTT assay; type: functional; conditions: dose 0.3-1.2 µM

CSCC[C@H](NC(=O)c1cc(Cc2n[nH]c(=O)c3ccccc23)ccc1F)C(=O)N[C@@H](CC(C)C)B1O[C@@H]2C[C@@H]3C[C@@H](C3(C)C)[C@]2(C)O1
60.1 nM: IC50 (MCF7 [26])
active: inhibition (BT-549 [1]) Dose-Dependent Effect | inhibition [2] | inhibition [3] | Activity (BT-549 [4]) | inhibition [5] Dose-Dependent Effect | inhibition [6] Dose-Dependent Effect | inhibition [7] Dose-Dependent Effect | Activity (BT-549 [8]) | Activity (BT-549 [9]) Dose-Dependent Effect | inhibition [10] | Activity (BT-549 [11]) | Activity (BT-549 [12]) | Activity (BT-549 [13]) | Activity (BT-549 [15]) | Activity (BT-549 [16]) | Activity (BT-549 [17]) | Activity (BT-549 [18]) | inhibition (BT-549 [19]) Dose-Dependent Effect | Activity (BT-549 [20]) | inhibition [21] | Activity (BT-549 [23]) Dose-Dependent Effect | inhibition [24] Dose-Dependent Effect | Activity (BT-549 [25]) | inhibition [27] | Activity (BT-549 [29]) | inhibition [30] | Activity (BT-549 [31]) | Activity (BT-549 [32]) Dose-Dependent Effect | Activity (BT-549 [33]) Dose-Dependent Effect
82.3 nM: IC50 (20S proteasome)
12.4 nM: IC50 (BT-549 [28])
102 nM: IC50 [14]
67.6 nM: IC50 (MDA-MB-231 [22])

O=C(c1cc(Cc2n[nH]c(=O)c3ccccc23)ccc1F)N1CCN(C(=O)C2CC2)CC1 [OLAPARIB]
10600 nM: IC50 (MCF7 [26])
active: Activity (BT-549 [34]) | Activity (BT-549 [18])
12.407: Activity (BT-549 [35])
6610 nM: IC50 (BT-549 [28])
> 30000 nM: IC50 (MDA-MB-231 [22])

CC(C)C[C@H](NC(=O)[C@H](CC(C)C)NC(=O)c1cc(Cc2n[nH]c(=O)c3ccccc23)ccc1F)B1O[C@@H]2C[C@@H]3C[C@@H](C3(C)C)[C@]2(C)O1
31.2 nM: IC50 (MDA-MB-231 [22])
10: fold change (FC) (MCF7 [36]) | fold change (FC) (MDA-MB-231 [37]) | fold change (FC) (BT-549 [38])
1: fold change (FC) (ES-2) | fold change (FC) (PC-3) | fold change (FC) (HEY) | fold change (FC) (SK-OV-3) | fold change (FC) (A549) | fold change (FC) (NCI-H1299) | fold change (FC) [39]
active: inhibition (BT-549 [1]) Dose-Dependent Effect | inhibition [2] | inhibition [3] | Activity (BT-549 [4]) | inhibition [5] Dose-Dependent Effect | inhibition [6] Dose-Dependent Effect | inhibition [7] Dose-Dependent Effect | Activity (BT-549 [8]) | Activity (BT-549 [9]) Dose-Dependent Effect | inhibition [10] | Activity (BT-549 [11]) | Activity (BT-549 [12]) | Activity (BT-549 [13]) | Activity (BT-549 [15]) | Activity (BT-549 [16]) | Activity (BT-549 [17]) | Activity (BT-549 [18]) | inhibition (BT-549 [19]) Dose-Dependent Effect | Activity (BT-549 [20]) | inhibition [21] | Activity (BT-549 [23]) Dose-Dependent Effect | inhibition [24] Dose-Dependent Effect | Activity (BT-549 [25]) | inhibition [27] | Activity (BT-549 [29]) | inhibition [30] | Activity (BT-549 [31]) | Activity (BT-549 [32]) Dose-Dependent Effect | Activity (BT-549 [33]) Dose-Dependent Effect
137 nM: IC50 [14]
17.8 nM: IC50 (BT-549 [28])
49.5 nM: IC50 (MCF7 [26])
60.9 nM: IC50 (20S proteasome)
